Data as given in patent publication US8637237B2, “Methods, compositions, and systems for the identification of species-specific or developmental stage-specific insecticides” (The University of North Carolina at Greensboro, priority 2003, dated 2014).

Target: T1, EcRB1/DmUSPF2 (Drosophila melanogaster, UniProt P34021)
T1 construct: The plasmid encodes a version of EcRB1 that includes 878 amino acids, and deletes the F domain; expressed in transfected cells; host or cells: CHO (mammalian cells)
T1 sequence (P34021 1-878): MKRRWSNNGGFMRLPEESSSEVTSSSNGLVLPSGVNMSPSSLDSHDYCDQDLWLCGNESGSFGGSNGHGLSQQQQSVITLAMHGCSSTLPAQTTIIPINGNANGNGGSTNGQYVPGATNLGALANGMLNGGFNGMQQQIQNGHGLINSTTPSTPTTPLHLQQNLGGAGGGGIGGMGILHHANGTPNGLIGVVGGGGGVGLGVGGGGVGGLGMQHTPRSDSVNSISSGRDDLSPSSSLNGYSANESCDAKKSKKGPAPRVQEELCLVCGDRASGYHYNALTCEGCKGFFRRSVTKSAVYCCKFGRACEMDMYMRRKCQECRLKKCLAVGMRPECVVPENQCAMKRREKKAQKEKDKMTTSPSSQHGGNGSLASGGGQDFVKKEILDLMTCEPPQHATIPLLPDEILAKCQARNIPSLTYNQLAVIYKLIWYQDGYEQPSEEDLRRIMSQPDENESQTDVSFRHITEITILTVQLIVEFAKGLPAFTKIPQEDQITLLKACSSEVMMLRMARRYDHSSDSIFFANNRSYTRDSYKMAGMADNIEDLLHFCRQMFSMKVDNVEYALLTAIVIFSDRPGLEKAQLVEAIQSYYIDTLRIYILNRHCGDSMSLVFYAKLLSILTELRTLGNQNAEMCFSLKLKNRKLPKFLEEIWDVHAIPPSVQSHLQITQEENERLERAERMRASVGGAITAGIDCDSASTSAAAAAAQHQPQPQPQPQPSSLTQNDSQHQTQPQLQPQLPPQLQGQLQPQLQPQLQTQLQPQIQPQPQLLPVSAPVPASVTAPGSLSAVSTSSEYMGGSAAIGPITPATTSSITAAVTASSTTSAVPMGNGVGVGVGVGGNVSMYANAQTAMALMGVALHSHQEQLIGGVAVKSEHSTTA
T1 sequence (P20153 104-507 partner limits assumed): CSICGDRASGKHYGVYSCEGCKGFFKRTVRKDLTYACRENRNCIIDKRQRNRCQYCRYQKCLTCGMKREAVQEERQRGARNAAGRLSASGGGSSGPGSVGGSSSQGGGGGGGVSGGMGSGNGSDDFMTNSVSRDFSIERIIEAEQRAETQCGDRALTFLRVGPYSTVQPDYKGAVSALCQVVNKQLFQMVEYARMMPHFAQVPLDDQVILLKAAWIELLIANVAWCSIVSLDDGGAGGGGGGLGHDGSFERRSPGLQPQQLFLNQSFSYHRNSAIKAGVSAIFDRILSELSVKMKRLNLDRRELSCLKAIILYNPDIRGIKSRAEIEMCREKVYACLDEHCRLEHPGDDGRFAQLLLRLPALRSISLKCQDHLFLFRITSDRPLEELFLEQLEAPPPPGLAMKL
Test: Drosophila EcRB1 with Drosophila USPF2, luciferase reporter in mammalian cells (FIG. 6)
Format: cell-based
Conditions: for increase of the effect of 0.1 μM murA: with 0.1 μM murA
Description: Unless noted otherwise, 100 ng of each EcR and USP plasmid was transfected into 2 ml of cell culture medium. As noted above, a reporter gene carrying five tandem copies of the hsp27 ecdysone response element (Riddihough and Pelham, 1986) is attached to a constitutive thymidine kinase promoter and a luciferase reporter gene (pEcREtk-LUC) and cotransfected into the cells along with vectors expressing EcR, USP, and a constitutively active β-galactosidase gene with lipofection, following manufacturer's protocols. The subsequent measure of luciferase activity reflects ecdysteroid-inducible transcription.
The Drosophila EcR isoform vectors (A, B1, and B2) used for these experiments have been described previously (Mouillet et al, 2001). These vectors lack the F-domain, which is also not essential for in vivo function (Cherbas et al, 2003). Additionally, three different VP16-USP vectors were utilized. Construction is of the VP16-USP vectors is described below. As in the earlier study, hsp27-EcRE mediated transcriptional activity was measured by detecting the luminescence produced by luciferase in transfected cell extracts. Luciferase activity was normalized by transfection with a plasmid that constitutively expresses the β-galactosidase gene such that enzymatic activity correlated with cellular mass.
After a 4 hour transfection period, the hormone treatment was applied by diluting stock solutions of muristerone A (murA; Alexis Corporation, San Diego, Calif.), JHI (Scitech), JHIII (Sigma, St Louis, Mo.), and/or 20E (Sigma, St Louis, Mo.) in DMSO. The cells were harvested 24 hours after treatment and the contents of the cells extracted for performing the luciferase and β-galactosidase assays.

## COC(=O)/C=C(\C)CC/C=C(\C)CC[C@H]1OC1(C)C [JHIII, juvenile hormone III]
  increase of the effect of 0.1 μM murA: increased

## CC(C)=CCCC(C)=CCCC(C)=CC(=O)O [farnesoic acid]
  increase of the effect of 0.1 μM murA: increased

## COC(=O)/C=C(\C)CC/C=C(\C)CCC=C(C)C [methyl farnesoate]
  increase of the effect of 0.1 μM murA: increased

## CC(C)CC[C@@H](O)[C@](C)(O)[C@H]1CC[C@@]2(O)C3=CC(=O)[C@]4(O)C[C@@H](O)[C@@H](O)C[C@]4(C)[C@H]3[C@H](O)C[C@]12C [murA, muristerone A]
0.1 μM and 1.0 μM murA
  stimulation of EcRB1/USPF2 complex: stimulated
